Assay results: PubChem BioAssay (NCI)
Where “and” joins values, the source holds several entries; their conditions need not be identical. Identical values can stand only once.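 In this assay, cells in 96-well plates receive the compound at five concentrations for 48 hours. Endpoints are linearly interpolated between the surrounding concentrations. Abbreviation: GI50, concentration required for 50% inhibition of growth. The concentration for full growth arrest is given as TGI.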

Tests used:
Test in all cases: NCI-60 cell line screen, 48 h
A549 NSCLC = system: A549 NSCLC
M14 melanoma = system: M14 melanoma
HOP-92 NSCLC = system: HOP-92 NSCLC
NCI-H522 lung = system: NCI-H522 lung
SK-MEL-5 melanoma = system: SK-MEL-5 melanoma
HCC-2998 colon = system: HCC-2998 colon
OVCAR-3 ovarian = system: OVCAR-3 ovarian
UACC-62 melanoma = system: UACC-62 melanoma
SNB-75 CNS = system: SNB-75 CNS
UACC-257 melanoma = system: UACC-257 melanoma

SMILES	TGI (A549 NSCLC) [µM]	TGI (M14 melanoma)	TGI (HOP-92 NSCLC)	TGI (NCI-H522 lung)	TGI (SK-MEL-5 melanoma) [µM]	TGI (HCC-2998 colon)	TGI (OVCAR-3 ovarian)	TGI (UACC-62 melanoma)	TGI (SNB-75 CNS)	GI50 (A549 NSCLC) [µM]	GI50 (M14 melanoma) [µM]	GI50 (HOP-92 NSCLC) [µM]	GI50 (NCI-H522 lung)	GI50 (SK-MEL-5 melanoma) [µM]	GI50 (HCC-2998 colon) [µM]	GI50 (OVCAR-3 ovarian) [µM]	GI50 (UACC-62 melanoma) [µM]	GI50 (SNB-75 CNS) [µM]	TGI (UACC-257 melanoma)	GI50 (UACC-257 melanoma) [µM]
CN1OC(CO)CC12C1CC3CC(C1)CC2C3 (centres undefined)	> 100	> 100 µM	> 100 µM	> 100 µM	> 100	> 100 µM	> 100 µM	> 100 µM	> 100 µM											
CCn1c(SC)nnc1-c1cc2c([nH]c3ccccc32)c(-c2cccc(O)c2)n1	62.9	12.5 µM	9.08 µM	11.8 µM	5.97	62.3 µM	5.35 µM	8.71 µM	3.94 µM	3.61	1.48	1.1	1.06 µM	1.03	4.94	1.67	1.27	1.3		
NC(=O)NC(=O)C1CCC(=O)N1S(=O)(=O)c1ccc(Cl)cc1 (centres undefined)	> 100	> 100 µM	> 100 µM	> 100 µM	> 100		> 100 µM	> 100 µM	> 100 µM										> 100 µM	
N#Cc1c(N/N=C/c2c(Cl)cccc2Cl)nc(N)nc1N1CCCC1	> 100	> 100 µM	> 100 µM	13.3 µM	7.11	21 µM	> 100 µM	> 100 µM	> 100 µM	3.65	1.36	9.41	2.63 µM	0.722	1.34	0.878	1.47	2.01		
Cc1ccc(S(=O)(=O)NCc2cccc([N+](=O)[O-])c2)cc1	> 100	> 100 µM	> 100 µM	> 100 µM	> 100		> 100 µM	> 100 µM	> 100 µM										> 100 µM	
CC1=C2[C@@H](c3ccccc3)C3C=CC2(C=C3C(F)(F)F)N(C(=O)NC2CCCCC2)C1=O (some centres undefined)	> 100	> 100 µM	> 100 µM		> 100	> 100 µM	> 100 µM	> 100 µM	> 100 µM										> 100 µM	
O=C1C(=O)c2c(ccc3ccccc23)-c2ccccc21	8.3		5.52 µM	3.13 µM	2.82	7.75 µM	0.713 µM	3.38 µM	4.03 µM	2.83		1.91	1.32 µM	1.5	2.65	0.25	1.57	1.83	4.07 µM	1.74
CCOC(=O)NC/C=C/CO	> 100	> 100 µM		> 100 µM	> 100	> 100 µM		> 100 µM	> 100 µM										> 100 µM	
O=C(CO[N+](=O)[O-])OCC(=O)c1ccccc1	> 100	> 100 µM	> 100 µM	> 100 µM		> 100 µM	> 100 µM		> 100 µM										> 100 µM	
Clc1ccc(N=CNc2ccc(-c3nc4ccccc4[nH]3)cc2)cc1	> 100	> 100 µM	> 100 µM	> 100 µM	> 100		> 100 µM	> 100 µM	> 100 µM	> 100	> 100	59.1	> 100 µM	39.9		5.35	0.386	36.1	> 100 µM	> 100
Cc1cc(C2(c3cc(C)c(O)c4ncccc34)OC(=O)c3ccccc32)c2cccnc2c1O	14			> 100 µM	0.0574	> 100 µM		14.6 µM	6.82 µM and 8.1 µM		0.0162						0.0209		> 100 µM	0.496
O=C(Nc1cccc(C(F)(F)F)c1)Nc1ccc(OCc2nnc(-c3ccccc3)o2)c(F)c1	38.5	62.8 µM	5.81 µM		21.3	59.8 µM	17 µM	24.6 µM	5.81 µM	6.02	7.18	1.77		5.71	6.4	4.23	4.1	0.645	37.9 µM	6.38
Nc1nc(N)c(-c2ccccc2)c(C(=O)Nc2nccs2)n1	> 100	> 100 µM	> 100 µM		> 100	> 100 µM	> 100 µM	> 100 µM											> 100 µM	
O=C1NC2(CCCCC2)C2=C1CCCCC2	> 100	> 100 µM	> 100 µM	> 100 µM	> 100		> 100 µM	> 100 µM	> 100 µM										> 100 µM	
CC1CC2C(=O)N(c3ccccc3)C(=O)C2c2[nH]c3ccccc3c21 (centres undefined)	> 100	> 100 µM			> 100	> 100 µM	> 100 µM	> 100 µM	55.1 µM											
CCNC(=O)O/N=C1/C=C2CC[C@@H]3C(CC[C@@]4(C)C3CC[C@@H]4OC(=O)NCC)[C@@]2(C)CC1 (some centres undefined)	14.2	8.22 µM	16.7 µM	4.77 µM	> 100	15.2 µM		7.92 µM	5.94 µM										11.1 µM	
Cc1c2cc[n+](C)cc2c(C)c2c1[nH]c1ccc(Oc3ccccc3)cc12	> 100	> 61.5 µM and 40.1 µM	7.37 µM and 6.77 µM	12.1 µM and 8.56 µM		> 47.9 µM and 39.6 µM	> 37.6 µM and 31.7 µM	7.5 µM and 7.54 µM	4.36 µM and 5.27 µM				2.41 µM and 0.743 µM					0.549	6.96 µM and 8.42 µM	
COc1cc(COC(=O)NC(Cc2cccs2)C(=O)O)c([N+](=O)[O-])cc1OC (centres undefined)	> 100	> 100 µM	> 100 µM		> 100	> 100 µM	> 100 µM	> 100 µM	> 100 µM										> 100 µM	
CN1C/C(=C\c2ccco2)c2nc(N)nc(-c3ccco3)c2C1	> 100	> 100 µM		> 100 µM	> 100	> 100 µM	> 100 µM	> 100 µM	> 100 µM										> 100 µM	
